These results are taken from patent US7449495B2, “Retinoid derivatives with antiangiogenic, antitumoral and proapoptotic activities” (Sigma-Tau Industrie Farmaceutiche Riunite S.p.A., priority 2001, dated 2008).

Data set [1] has as its system human microvascular endothelial (HMVE) cells. Conditions: after 96 h of treatment, cited from earlier work; for inhibition (%) at 0.5 μM: relative to vehicle alone control; for IC50: highest concentration evaluated 0.5 μM, read-out: IC50 (concentration inhibiting proliferation by 50%).
Data set [2] relates to human no small cell lung carcinoma NCI-H460. Nature of the data set: Antitumoral activity in human no small cell lung carcinoma model NCI-H460. It counts as in vivo. Conditions: NCI-H460, 15 mg/kg ip, q7dx3. The protocol:
The ST1926 solution was prepared immediately before use and solubilised in cremophor:ethanol 1:1 and subsequently diluted 1:4 in buffered saline solution. The animal treatments were administered in a volume of 10 ml/kg. […] Measurements of tumor dimensions were performed using a digital calliper (Vernier Caliper) twice weekly, from the time in which the mass was measurable. The tumor mass was evaluated from the size of the two principal dimensions (length and breadth), expressed in mm, applying the formula (length×breadth^2)/2, that is, the tumor volume in mm3. For each experimental group, the percentage of tumor volume inhibition was calculated (TVI %), with respect to the control, namely (100−(T/C %). TVI was evaluated 2 days after the final administration of ST1926.
A comparison between the TVI values obtained for each group was performed using the non parametric Mann Whitney test for non-paired data, using the Instat software from GraphPad inc.

The test system of data set [3] is chicken chorioallantoic membrane vessels, bFGF induced. In words: Angiostatic activity in chicken chorioallantoic membrane (CAM) model. As to conditions: for 12th day (72 hours), number of vessels per sponge / Δvessels: mean ± SE. It counts as in vivo. The text has this: The chicken chorioallantoic membrane is a very vascularised membrane in which the vessels make their appearance at the 4th day of development, develop an arteriovenal system by the 8th day of development, and actively proliferate until the 11th day.
The aim of the study was to follow vasal development in the CAM under basal conditions and in the presence of an inducer bFGF (basic Fibroblast Growth Factor) of vasoproliferation. This study used chicken embryonal eggs at the initial stage of their development. On the 3rd day of development an operation to open the shells was performed to make the vessels of the CAM visible. The treatment was administered on the 9th day of development by applying a fragment of sterile gelatine (GELFOAM Pharmacia-Upjohn) about 1 mm^3, to the CAM surface, onto which was administered the bFGF (50 ng/embryo) or the products in question, for 3 consecutive days.
The evaluation of the effect of the molecule on vasoproliferation was obtained by a comparison of the vessels at the time of zero treatment with these of later times (12th day).

Data set [4] relates to NB4 acute promyelocytic leukaemia cell line. Nature of the data set: Cytotoxicity test (sulphorodamine B), NB4. It counts as cell-based, human. Conditions: Homo sapiens, 24 h incubation, survival 48 h after removal, read-out: IC50 ± SD. The source says:
To carry out the cytotoxicity tests, two acute promyelocytic leukaemia (APL) cell lines were used. • 1. Cell line NB4, carrying the chromosomal translocation t(15; 17) which generates the fusion protein PML/RARα. This cell line is extremely sensitive to the differentiating action of pharmaceutical doses of ATRA (10^−7-10^−6 M); • 2. Cell line HL60, which responds to ATRA less sensitively with respect to cell line NB4.
These cell lines were maintained in RPMI 1640 containing 10% foetal calf serum (FCS) and 1% glutamine.
The cytotoxicity tests were carried out using NB4 or HL-60 cells in suspension (10000/well). The cells were seeded in a volume of 250 μl in 96 well plates and incubated for 24 hours at 37° C. The following day, test compound ST 1926 [(2E)-3-[3′-(1-Adamantyl)-4′-hydroxy[1,1′-biphenyl]-4-yl]-2-propenoate/ic acid] was added at increasing concentrations, and the cells were incubated for a further 24 hours at 37° C. in a humidified atmosphere containing 5% CO2. On the 3rd day, the medium was removed by centrifuging the plate at 1600×g for 10 min and the supernatant decanted. 250 μl of PBS were added; then the plates were centrifuged again at 1600×g for 10 minutes and the supernatant decanted. 200 μl/well of RPMI 1640 medium containing 10% FCS were added and the plates were incubated at 37° C. for a further 48 hours. On the 5th day, the plates were again centrifuged at 1600×g for 10 minutes, and the medium was removed by upturning the plates, 200 μl of PBS and 50 μl of cold, 80% TCA were added. The plates were then left to incubate on ice for at least 1 hour. The TCA was removed by upturning; the plates were washed three times by immersion in distilled water and dried first on paper, then with a jet of hot air. To all wells were added 200 μl of 0.4% sulphorodamine B in 1% acetic acid. The plates were incubated at room temperature for a further 30 minutes. […] The optical density was measured using a Multiskan spectrophotometer at 540 nm.
(§1) Cell survival was determined by incubation with ST1926 for 24 hours, 48 hours after the removal of the compound. […]

In data set [5] the test system is Human prostate carcinoma PC3. In words: Cytotoxicity test (sulphorodamine B), PC3. Format: cell-based. As to conditions: 24 h incubation, survival 48 h after removal, read-out: IC50 ± SD.
Excerpt: (§2) Different cell lines deriving from solid tumors were also used. • 1. Human prostate carcinoma PC3 and DU145. These cell lines were maintained in RPMI 1640 medium containing 10% FCS, 1% sodium pyruvate and 1% glutamine; • 2. Human colon adenocarcinoma LoVo. This cell line was maintained in HAM's F-12 medium, containing 10% FCS and 1% glutamine. • 3. Human ovarian carcinoma such as A2780 and A2780/Dx, sensitive and resistant to drugs, respectively (doxorubicin, taxol, etoposide, vincristine); IGROV-1 and IGROV-1/Pt, sensitive and resistant to platinum-based chemotherapy, respectively, were maintained in RPMI 1640 medium containing 10% FCS, 1% sodium pyruvate and 1% glutamine; • 4. Human melanoma MeWo and MeS 2.21, glioblastoma GBM, no small cell lung carcinomas A431, NCI—H460, osteosarcomas SAOS and U2OS were maintained in RPMI 1640 medium containing 10% FCS, 1% sodium pyruvate and 1% glutamine.
(§3) The cytotoxicity tests were carried out using NB4 or HL-60 cells in suspension (10000/well). The cells were seeded in a volume of 250 μl in 96 well plates and incubated for 24 hours at 37° C. […] The optical density was measured using a Multiskan spectrophotometer at 540 nm. […]
as §1

Data set [6] deals with Human colon adenocarcinoma LoVo. In words: Cytotoxicity test (sulphorodamine B), LoVo. It counts as cell-based. Conditions: 24 h incubation, survival 48 h after removal, read-out: IC50 ± SD.
Excerpt: as §2, §3, §1

Data set [7] concerns NB4 cells. Nature of the data set: Pro-differentiating effect on NB4 cells (NBT). Format: cell-based. As to conditions: Homo sapiens, NB-4, 72 h, NB4, three days, read-out: AC50 (activating concentration for 50% cellular differentiation) ± SD. The protocol:
NB4 cells were plated at a density of 150000 cells/ml in RPMI 1640 medium containing 10% foetal serum. The cells were then treated with ST1879 or ST1898 at decreasing concentrations starting from 0.4 μM to 0.01 μM and placed in an incubator for three days without any change of the media. To measure the differentiating effect 500000 cells from each sample were collected, centrifuged and resuspended in 1 ml of RPMI 1640 medium containing 10% serum, 1 mg/ml nitroblue tetrazolium (NBT) and 100 ng of PMA (phorbol myristyl acetate). The cells, resuspended as above, were incubated at 37° C. for 60 minutes. At the conclusion of incubation the cells were centrifuged and the precipitate resuspended in 1 ml of PBS containing 10% Triton ×100. The samples were sonicated until lysed and then read by spectrophotometer at a wavelength of 540 nm. Samples containing differentiated cells turn a purplish colour whilst the control samples and/or these with non differentiated cells remain white or much less intensely coloured. The pro-differentiating action of ST1879 or of ST1898 has been evaluated in terms of AC50 (activating concentration for 50% cellular differentiation) as reported below.

Where [8] appears, read: bFGF 0.05 + compound 0.25 μg/embryo.

Where “and” joins values, the source holds several entries; their conditions need not be identical. Identical values can stand only once. Some results are limits rather than exact numbers.

Take `CC1=C(/C=C/C(C)=C/C=C/C(C)=C/C(=O)O)C(C)(C)CCC1` [trans-RA (7), trans-Retinoic Acid]: in data set [1], the “inhibition (%) at 0.5 μM” value is on record as 10% and the IC50 was greater than 500 nM.

Consider `CC(=O)O[C@H]1C(=O)[C@@]2(C)[C@H]([C@H](OC(=O)c3ccccc3)[C@]3(O)C[C@H](OC(=O)[C@H](O)[C@@H](NC(=O)c4ccccc4)c4ccccc4)C(C)=C1C3(C)C)[C@]1(OC(C)=O)CO[C@@H]1C[C@@H]2O` [Taxol, reference compound], for which, in data set [2], the “BWL % Max” value came out at 4%, the Lethality was 0/8 and the “TVI % ± SE” value came to 0%.

Regarding `COc1ccc(-c2ccc(/C=C/CO)cc2)cc1C12CC3CC(CC(C3)C1)C2` [Example 7, E-4-(3-(1-adamantyl)-4-methoxyphenyl)cinnamyl alcohol], the melting point came to 148 °C.

For the compound `O=C(O)c1ccc2c(Cl)c(-c3ccc(O)c(C45CC6CC(CC(C6)C4)C5)c3)ccc2c1` [5-Cl-AHPN (2)], the “inhibition (%) at 0.5 μM” value in data set [1] is listed as 45%.

Turning to `O=C(O)/C=C/c1ccc(-c2ccc(O)c(C34CC5CC(CC(C5)C3)C4)c2)c(Cl)c1` [3-Cl-AHPC (5)], in data set [1], the “inhibition (%) at 0.5 μM” value is given as 60% and the IC50 was 300 nM.

As to “bFGF: basic Fibroblast Growth Factor, inducer of vasoproliferation in the CAM model [reference compound]”, in data set [3] (bFGF 0.05 μg/embryo alone), the “12th day (72 hours), number of vessels per sponge” value is 28 ± 2 vessels per sponge and 19 ± 1 vessels per sponge and 22 ± 1 vessels per sponge; the Δvessels was 24 ± 1 vessels per sponge and 15 ± 1 vessels per sponge and 19 ± 1 vessels per sponge.

Turning to `COc1ccc(-c2ccc(/C=C/C(=O)O)cc2)cc1C12CC3CC(CC(C3)C1)C2` [ST1898, E-4-(3-(1-adamantyl)-4-methoxyphenyl)cinnamic acid], in data set [3] (setting [8]), the “Δvessels, change vs bFGF alone” value is reported as “(−71%)”; the “12th day (72 hours), number of vessels per sponge” value stood at 10 ± 1 vessels per sponge; the Δvessels stood at 7 ± 1 vessels per sponge. Moreover, the IC50 in data set [4] was found to be 8800 ± 600 nM. Further, in data set [5], the IC50 was found to be 1700 ± 200 nM. In addition, in data set [6], the IC50 turned out to be 380 ± 20 nM. Besides, the AC50 in data set [7] turned out to be 19 nM.

Broadly, the melting point is the temperature, or range, at which the solid turns liquid.
